Test results reported in PubChem BioAssay (NCI).
Several values for one entry are separate records, joined by “and”; a condition that tells them apart may be missing. Identical values can stand only once.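 Exposure lasted 48 hours, with cells grown in 96-well plates and compounds tested at five concentrations. The concentration for 50% growth inhibition is given as GI50. At the TGI there is no net growth.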

What follows are compounds tested on MDA-MB-468 breast (assay: growth of human tumour cells (NCI), 48 h).

Compound	GI50	TGI
CCCCCCCCCCCCCCCCCCNC(=O)[C@H]1CSC(c2ccc(OC)c(F)c2)N1 (stereo not given in full)	18.6 µM	> 50.9 µM
COc1cccc(NC(=O)c2sc3nc4c(cc3c2N)CCCC4)c1	0.239 µM	0.874 µM
OB([O][Hg][c]1ccccc1)[O][Hg][c]1ccccc1	0.0885 µM	0.303 µM
CCOC(=O)c1cnc(SCc2ccc(Cl)c(Cl)c2)nc1N1CC1	2.4 µM	6.14 µM
COc1cc(-c2cc(C(=O)N3CCN(C(=O)c4ccccc4NCc4ccco4)CC3)nc3cc(-c4ccccc4)nn23)cc(OC)c1OC	2.32 µM	7.2 µM
COc1cc[nH]c1/C=C1\C(=O)Nc2ccc(F)c(C#C[C@@H](O)[C@@H](N)[C@@H](C)O)c21	0.476 µM	1.18 µM
O=C1c2cc3c(cc2-c2c1c1cc(Cl)c(Cl)cc1c(=O)n2CCCn1ccnc1)OCO3	< 0.01 µM	0.0458 µM
COc1ccc(/C(=C/c2cc(OC)c(OC)c(OC)c2)[N+](=O)[O-])cc1	2.01 µM	4.78 µM
COc1ccc(-c2cc(-c3ccc(Nc4nc(Nc5ccc(Cl)cc5)nc(Nc5ccc(Cl)cc5)n4)cc3)nc(N)c2C#N)cc1	0.369 µM	1.96 µM
C[C@H]1[C@H](OC(=O)CCC(=O)O)O[C@@H]2O[C@]3(C)CC[C@H]4[C@H](C)CC[C@@H]1[C@@]24OO3	2.86 µM	24.7 µM
Cc1cc(NC(=O)C2c3ccccc3C(=O)N(CC(C)C)C2c2cccs2)no1 (stereo not given)	43.8 µM	> 100 µM
Nc1cccc2c1C(=O)N(C1CCC(=O)NC1=O)C2=O (stereo not given)	> 100 µM	> 100 µM
O/N=C1\CCc2cc(-c3nc(C4CCNCC4)[nH]c3-c3ccncc3)ccc21	> 25 µM	> 25 µM
O=C1/C(=C\c2ccc(Cl)cc2)CN(C(=S)Nc2ccccc2)C/C1=C\c1ccc(Cl)cc1	0.457 µM	1.66 µM
CCCCCCCCCCCCc1ccc(C(=O)/C=C/C(=O)O)cc1	1.66 µM	3.35 µM
COc1ccc(N(C)c2nc(C)nc3ccccc23)cc1	< 0.01 µM	< 0.01 µM
Cn1cc(-c2ccc(=O)n(Cc3cccc(-c4ncc(OCCN5CCOCC5)cn4)c3)n2)cn1	14.4 µM	86.8 µM
O=C1C=C[C@]2(C[C@@H](c3cccc(C(F)(F)F)c3)O[C@@H](c3cccc(C(F)(F)F)c3)O2)O1	1.67 µM	3.59 µM
Cc1ccc(S(=O)(=O)NC(CCC(=O)Nc2ccc(Cl)cc2)C(=O)Nc2ccc(Cl)cc2)cc1 (stereo not given)	1.29 µM	6.53 µM

Compound	GI50	TGI
COc1cc2c(cc1OC)C(=O)C(Br)CC2 (stereo not given)	1.28 µM	3.57 µM
O=C1[C@H]2Cc3c([nH]c4ccccc34)[C@@H](c3ccc(Br)cc3)N2C(=O)CN1C1CCN(Cc2ccccc2)CC1	1.14 µM	4.85 µM
COc1ccc([C@H]2C(=O)N(c3cc(OC)c(OC)c(OC)c3)[C@@H]2c2ccc(OC)c(O)c2)cc1	0.023 µM	0.0628 µM
COc1cc2cc(Oc3ccc(NC(=O)Nc4ccc(F)c(C(F)(F)F)c4)cc3)c(C)nc2cc1OCCN1CCCCC1	1.47 µM	2.92 µM
O=[N+]([O-])c1ccc(N/N=C\c2cc(Cl)ccc2O)nc1	2.51 µM	7.25 µM
CS(=O)(=O)c1nccc(-c2c(-c3ccc(F)c(OCCc4ccc(F)cc4)c3)nc3sccn23)n1	1.81 µM	3.53 µM
COc1ccccc1C(=O)/C=C/c1cc2cccc(OC)c2[nH]c1=O	0.104 µM	2.01 µM
CC1(C)N=C(N)N=C(N)N1c1cccc(/C=C/C=C/c2cccc([N+](=O)[O-])c2)c1	0.346 µM	12 µM
O=C(Nc1n[nH]c2nc(-c3ccco3)c(Br)cc12)C1CC1		> 25 µM
COc1cc(CCc2cc(NC(=O)c3ccc(N4C[C@@H](C)N[C@@H](C)C4)cc3)n[nH]2)cc(OC)c1	> 10 µM and 8.1 µM	> 10 µM and 20.8 µM
CCC1(OC(=O)CN2CCN(CCO)CC2)C(=O)OCc2c1cc1n(c2=O)Cc2cc3ccccc3nc2-1 (stereo not given)	0.149 µM	0.449 µM
N#C/C(=C\c1c(-c2ccccc2)[nH]c2ccccc12)C(=O)c1ccc(Cl)cc1	0.527 µM	6.29 µM
COc1cc2cc(Oc3ccc(NC(=O)Nc4cccc(C(F)(F)F)c4)cc3)c(C)nc2cc1OCCN1CCCCC1	1.59 µM	3.21 µM
COC(=O)[C@]12CC[C@@H](C)[C@H](C)[C@@H]1C1=CC[C@@H]3[C@@]4(C)CC(=O)[C@H](O)[C@@]5(C)COC(=C45)C[C@@]3(C)[C@]1(C)CC2	14.9 µM	30.5 µM
C[C@@H](c1ccc2nccn2c1)n1nnc2ncc(-c3cnn(C)c3)nc21	38.6 µM	> 100 µM
O=C(Nc1ccncc1)C(=O)c1cn(S(=O)(=O)c2ccc(Br)cc2)c2ccccc12	0.608 µM	7.84 µM
COc1ccc(/C=C2\CN(C(=O)CCN3CCC(=NO)CC3)C/C(=C\c3ccc(OC)cc3)C2=O)cc1	2.01 µM	4.58 µM
C1CCC([PH+](C2CCCCC2)C2CCCCC2[PH+](C2CCCCC2)C2CCCCC2)CC1.[Au].[CH-]1CCCCC1C1CCCC[N-]1 (stereo not given)	0.154 µM	0.641 µM
Cc1cc2c(C)c3cc(C)c(N)cc3nc2cc1N	0.399 µM	2.37 µM
